Measurements from patent publication US20240415914A1, “Water Dispersible Cannabinoid Compositions” (priority 2021, published 2024).

Test: Stability of cannabinoid and Vitamin E components of Beverage 1 (AB White) stored at 8° C. and 21-25° C., LCMSMS over 570 days
Type: physicochemical
Settings: for Stability in AB White, 8° C. (content by LCMSMS): beverage stored at 8° C.; for Stability in AB White, 21-25° C. (content by LCMSMS): beverage stored at 21-25° C.
Protocol: The LCMSMS was calibrated for 0-1000 ng/ml cannabinoids with the same resin material used in the preparation of the concentrates. At each time period, 100 ml of beverage was diluted with 10 ml of methanol and injected into the LCMSMS for analysis.

Which results are given for `CCCCCc1cc(O)c(C/C=C(\C)CCC=C(C)C)c(O)c1` [CBG, cannabigerol]?
Stability in AB White, 8° C. (content by LCMSMS) (day 0): 4.87 µg/mL; Stability in AB White, 8° C. (content by LCMSMS) (day 1): 4.74 µg/mL; Stability in AB White, 8° C. (content by LCMSMS) (day 2): 4.91 µg/mL; Stability in AB White, 8° C. (content by LCMSMS) (day 3): 4.74 µg/mL; Stability in AB White, 8° C. (content by LCMSMS) (day 5): 4.88 µg/mL; Stability in AB White, 8° C. (content by LCMSMS) (day 8): 4.86 µg/mL; Stability in AB White, 8° C. (content by LCMSMS) (day 9): 4.89 µg/mL; Stability in AB White, 8° C. (content by LCMSMS) (day 10): 4.77 µg/mL; Stability in AB White, 8° C. (content by LCMSMS) (day 11): 4.87 µg/mL; Stability in AB White, 8° C. (content by LCMSMS) (day 12): 4.87 µg/mL; Stability in AB White, 8° C. (content by LCMSMS) (day 15): 4.81 µg/mL; Stability in AB White, 8° C. (content by LCMSMS) (day 16): 4.84 µg/mL; Stability in AB White, 8° C. (content by LCMSMS) (day 17): 4.78 µg/mL; Stability in AB White, 8° C. (content by LCMSMS) (day 18): 4.81 µg/mL; Stability in AB White, 8° C. (content by LCMSMS) (day 19): 4.83 µg/mL; Stability in AB White, 8° C. (content by LCMSMS) (day 22): 4.75 µg/mL; Stability in AB White, 8° C. (content by LCMSMS) (day 23): 4.89 µg/mL; Stability in AB White, 8° C. (content by LCMSMS) (day 24): 4.83 µg/mL; Stability in AB White, 8° C. (content by LCMSMS) (day 25): 4.89 µg/mL; Stability in AB White, 8° C. (content by LCMSMS) (day 26): 4.77 µg/mL; Stability in AB White, 8° C. (content by LCMSMS) (day 29): 4.91 µg/mL; Stability in AB White, 8° C. (content by LCMSMS) (day 30): 4.79 µg/mL; Stability in AB White, 8° C. (content by LCMSMS) (day 60): 4.68 µg/mL; Stability in AB White, 8° C. (content by LCMSMS) (day 90): 4.66 µg/mL; Stability in AB White, 8° C. (content by LCMSMS) (day 120): 4.89 µg/mL; Stability in AB White, 8° C. (content by LCMSMS) (day 150): 4.83 µg/mL; Stability in AB White, 8° C. (content by LCMSMS) (day 180): 4.71 µg/mL; Stability in AB White, 8° C. (content by LCMSMS) (day 210): 4.73 µg/mL; Stability in AB White, 8° C. (content by LCMSMS) (day 240): 4.69 µg/mL; Stability in AB White, 8° C. (content by LCMSMS) (day 270): 4.72 µg/mL; Stability in AB White, 8° C. (content by LCMSMS) (day 300): 4.74 µg/mL; Stability in AB White, 8° C. (content by LCMSMS) (day 330): 4.69 µg/mL; Stability in AB White, 8° C. (content by LCMSMS) (day 360): 4.66 µg/mL; Stability in AB White, 8° C. (content by LCMSMS) (day 390): 4.68 µg/mL; Stability in AB White, 8° C. (content by LCMSMS) (day 420): 4.66 µg/mL; Stability in AB White, 8° C. (content by LCMSMS) (day 450): 4.68 µg/mL; Stability in AB White, 8° C. (content by LCMSMS) (day 480): 4.64 µg/mL; Stability in AB White, 8° C. (content by LCMSMS) (day 510): 4.49 µg/mL; Stability in AB White, 8° C. (content by LCMSMS) (day 540): 4.53 µg/mL; Stability in AB White, 8° C. (content by LCMSMS) (day 570): 4.46 µg/mL; Stability in AB White, 21-25° C. (content by LCMSMS) (day 0): 4.87 µg/mL; Stability in AB White, 21-25° C. (content by LCMSMS) (day 1): 4.73 µg/mL; Stability in AB White, 21-25° C. (content by LCMSMS) (day 2): 4.72 µg/mL; Stability in AB White, 21-25° C. (content by LCMSMS) (day 3): 4.75 µg/mL; Stability in AB White, 21-25° C. (content by LCMSMS) (day 5): 4.89 µg/mL; Stability in AB White, 21-25° C. (content by LCMSMS) (day 8): 4.90 µg/mL; Stability in AB White, 21-25° C. (content by LCMSMS) (day 9): 4.79 µg/mL; Stability in AB White, 21-25° C. (content by LCMSMS) (day 10): 4.68 µg/mL; Stability in AB White, 21-25° C. (content by LCMSMS) (day 11): 4.74 µg/mL; Stability in AB White, 21-25° C. (content by LCMSMS) (day 12): 4.88 µg/mL; Stability in AB White, 21-25° C. (content by LCMSMS) (day 15): 4.87 µg/mL; Stability in AB White, 21-25° C. (content by LCMSMS) (day 16): 4.80 µg/mL; Stability in AB White, 21-25° C. (content by LCMSMS) (day 17): 4.80 µg/mL; Stability in AB White, 21-25° C. (content by LCMSMS) (day 18): 4.72 µg/mL; Stability in AB White, 21-25° C. (content by LCMSMS) (day 19): 4.68 µg/mL; Stability in AB White, 21-25° C. (content by LCMSMS) (day 22): 4.68 µg/mL; Stability in AB White, 21-25° C. (content by LCMSMS) (day 23): 4.85 µg/mL; Stability in AB White, 21-25° C. (content by LCMSMS) (day 24): 4.80 µg/mL; Stability in AB White, 21-25° C. (content by LCMSMS) (day 25): 4.86 µg/mL; Stability in AB White, 21-25° C. (content by LCMSMS) (day 26): 4.78 µg/mL; Stability in AB White, 21-25° C. (content by LCMSMS) (day 29): 4.76 µg/mL; Stability in AB White, 21-25° C. (content by LCMSMS) (day 30): 4.73 µg/mL; Stability in AB White, 21-25° C. (content by LCMSMS) (day 60): 4.83 µg/mL; Stability in AB White, 21-25° C. (content by LCMSMS) (day 90): 4.65 µg/mL; Stability in AB White, 21-25° C. (content by LCMSMS) (day 120): 4.59 µg/mL; Stability in AB White, 21-25° C. (content by LCMSMS) (day 150): 4.63 µg/mL; Stability in AB White, 21-25° C. (content by LCMSMS) (day 180): 4.79 µg/mL; Stability in AB White, 21-25° C. (content by LCMSMS) (day 210): 4.75 µg/mL; Stability in AB White, 21-25° C. (content by LCMSMS) (day 240): 4.79 µg/mL; Stability in AB White, 21-25° C. (content by LCMSMS) (day 270): 4.62 µg/mL; Stability in AB White, 21-25° C. (content by LCMSMS) (day 300): 4.67 µg/mL; Stability in AB White, 21-25° C. (content by LCMSMS) (day 330): 4.71 µg/mL; Stability in AB White, 21-25° C. (content by LCMSMS) (day 360): 4.69 µg/mL; Stability in AB White, 21-25° C. (content by LCMSMS) (day 390): 4.70 µg/mL; Stability in AB White, 21-25° C. (content by LCMSMS) (day 420): 4.72 µg/mL; Stability in AB White, 21-25° C. (content by LCMSMS) (day 450): 4.73 µg/mL; Stability in AB White, 21-25° C. (content by LCMSMS) (day 480): 4.46 µg/mL; Stability in AB White, 21-25° C. (content by LCMSMS) (day 510): 4.51 µg/mL; Stability in AB White, 21-25° C. (content by LCMSMS) (day 540): 4.48 µg/mL; Stability in AB White, 21-25° C. (content by LCMSMS) (day 570): 4.47 µg/mL
